Test results as given in patent US20220227758A1, “IMIDAZOPYRIDINE COMPOUND AS IRAK4 INHIBITOR” (MEDSHINE DISCOVERY INC., priority 2019, published 2022).

Columns and labels:
[1] = target: T1, human IRAK4 (Homo sapiens, UniProt Q9NWZ3); assay: 33P-labeled kinase activity assay (in vitro enzymatic activity evaluation); type: biochemical
T1 construct: purchased Reaction Biology Corp
T1 sequence (Q9NWZ3 1-460): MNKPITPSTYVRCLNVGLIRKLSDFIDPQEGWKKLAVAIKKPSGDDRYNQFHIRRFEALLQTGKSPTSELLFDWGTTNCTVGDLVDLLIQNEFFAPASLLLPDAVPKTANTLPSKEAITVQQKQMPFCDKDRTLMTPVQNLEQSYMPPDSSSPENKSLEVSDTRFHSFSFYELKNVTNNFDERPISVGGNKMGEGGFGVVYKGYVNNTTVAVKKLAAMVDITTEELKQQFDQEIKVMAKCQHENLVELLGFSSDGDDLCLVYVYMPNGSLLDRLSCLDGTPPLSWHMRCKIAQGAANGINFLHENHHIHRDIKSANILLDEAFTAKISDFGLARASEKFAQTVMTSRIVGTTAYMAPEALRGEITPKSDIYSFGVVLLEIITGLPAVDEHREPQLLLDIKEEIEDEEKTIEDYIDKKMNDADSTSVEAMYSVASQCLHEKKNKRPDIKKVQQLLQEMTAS
Protocol: The inhibitory activity of the test compounds against human IRAK4 was evaluated by determining IC50 values in a ^33P-labeled kinase activity assay (Reaction Biology Corp).
Buffer conditions: 20 mM Hepes (pH 7.5), 10 mM MgCl2, 1 mM EGTA, 0.02% Brij35, 0.02 mg/mL BSA, 0.1 mM Na3VO4, 2 mM DTT, 1% DMSO.
Procedures: The test compound was dissolved in DMSO at room temperature to prepare a 10 mM solution for later use. The substrates were dissolved in freshly formulated buffers. The kinase was added, and mixture was stirred homogeneously. The DMSO solution containing the test compound was added to the above mixed reaction system by an acoustic technique (Echo 550). After 15 minutes of incubation, the reaction was started by adding ^33P-ATP. After 120 minutes of reaction at room temperature, the resulting solution was loaded on P81 ion exchange chromatography paper sheet (Whatman #3698-915). After repeated washings with 0.75% phosphoric acid solution, the radioactivity of the phosphorylated substrate residue on the paper sheet was measured. The kinase activity data are shown as a comparison of the kinase activity of the test compound and the kinase activity of the blank (DMSO only) and a curve was fitted using Prism4 software (GraphPad) to give IC50 values, with the experimental results shown in Table 5.

[2] = system: THP-1 cells; assay: cells; details: Homo sapiens, THP-1, 18 h, read-out: THP-1/IC50
Protocol: TNF-α ELISA in THP-1 cells
THP-1 human acute […] leukemia cells were purchased from ATCC (Cat # TIB-202) and incubated in a5% CO2 incubator at 37° C. The medium was RPMI1640 (Gibco, Cat # 22400-105), the supplementary was 10% FBS (Gibco, Cat # 10091148); 1% PenStrep (Gibco, Cat # 15140); 0.05 mM 2-mercaptoethanol (Sigma, Cat # M6250).
TNF-α content in the cell culture supernatant was measured by a TNF-α Elisa kit. TNF-α was produced by stimulation of THP-1 cells with 150 ng/mL LPS (Sigma, Cat # L6529). Normal THP-1 cells in logarithmic phase were seeded in 96-well plates (Corning #3599) at a certain concentration (1×10^5/100 μL) and then incubated in an incubator. After two hours, 16.7 μL of test compound of different concentrations (8×final concentration) was added and the mixture was incubated in the incubator. After one hour, 16.7 μL of 1200 ng/mL LPS was added and the mixture was incubated in the incubator. After 18 h, the culture was centrifuged and the probe of the supernatant was collected. The TNF-α content was measured by a TNF-α Elisa kit. Finally, the OD signals (OD450-OD570) were read on an envision plate reader.
The OD450-OD570 signals were converted to percent inhibition.
Inhibition%=(ZPE−sample)/(ZPE−HPE)×100.
“HPE” represents the OD450-OD570 signal value of the control well without LPS-stimulated cells, and “ZPE” represents the OD450-OD570 signal value of the control well with LPS-stimulated cells.
IC50 values for compounds were calculated by XLFit in the Excel.
Equation:y=Bottom+(Top-Bottom)/(1+(IC50/X)^ HillSlope).

[3] = system: human B-cell lymphoma OCI-LY10 cells subcutaneous xenograft tumor; assay: In vivo pharmacodynamic study in OCI-LY10 subcutaneous xenograft tumor mouse model; details: ibrutinib 10 mpk, WX005 50 mpk; for T/C value / TGI value: day 18 after start of administration, WX005 + ibrutinib 50+10 mpk
Protocol: The purpose of this experiment was to evaluate the efficacy of test drug WX005 on human B-cell lymphoma OCI-LY10 cell subcutaneous xenograft tumors in a CB17 SCID mouse model in vivo.
OCI-LY10 human B cell lymphoma cells, cultured in a 5% CO2 incubator at 37° C.
OCI-LY10 tumor cells were subcultured. 0.2 mL (1×10^7 cells) of OCI-LY10 cells (along with matrigel in a volume ratio of 1:1) was subcutaneously inoculated on the right back of each […], and the mice were administered in groups when the average tumor volume was 167 mm^3. Animals were monitored daily for health and death, and routine examinations include observation of the effect of tumor growth and drug treatment on the daily performance of the animals, such as behavioral activities, food and water intake, weight changes (twice weekly), tumor size (twice weekly for tumor volume), appearance signs, or other abnormal conditions.
The experimental indices were to investigate whether tumor growth was inhibited or delayed or the tumor was cured. The procedures comprised measuring tumor volume (TV), and calculating the tumor inhibiting therapeutic effect TGI (%) or relative tumor proliferation rate T/C (%) of the compound. TV=0.5a×b^2, where a and b represent the long diameter and short diameter of the tumor, respectively.
T/C%=TRTV/CRTV×100% (TRTV: RTV of treatment group; CRTV: RTV of negative control group). Relative tumor volume (RTV) was calculated based on the results of tumor measurement. The calculation formula was: RTV=Vt/V0, wherein Vo was the average tumor volume measured at the time of grouping and administration (i.e., d0), Vt was the average tumor volume at a certain measurement, and the data of TRTV and CRTV were obtained on the same day.

[4] = system: lipopolysaccharide (LPS)-induced TNF-α secretion; assay: Pharmacodynamic study of LPS-induced TNF-α secretion in SD rats; type: in vivo; details: oral
Protocol: SD rats were orally administered with a solvent, dexamethasone (DEX, 0.5 mg/kg) as positive control, and the test compound, and were intraperitoneally injected with LPS (1 mg/kg) 0.5 hours after the administration. Animals were euthanized with CO2 2 h after LPS injection. Cardiac blood was collected into EDTA-K2 vacutainers, and a part of the anticoagulated blood was centrifuged and the plasma was frozen at −80° C.
Frozen plasma was thawed at room temperature and the concentration of TNF-α in the plasma was measured using ELISA kit.
The experimental data were expressed using mean±SEM, and TNF-α levels were analyzed by One-way ANOVA. Significant differences were considered for p<0.05.

[5] = system: collagen-induced arthritis; assay: In vivo efficacy assay of collagen-induced mouse arthritis; parameters: species or system DBA/1 mice; details: 100 mg/kg twice daily for 14 days, oral gavage
Protocol: The purpose of this experiment was to investigate the therapeutic effect of compound WX005 in a mouse model of collagen-induced arthritis.
Animals: male DBA/1 mice aged 6-8 weeks; supplier: Vital River.
Grouping: Among 39 DBA/1 mice, 5 mice were randomly selected as normal controls, and the other 34 were immunized. The day of the first immunization was recorded as Day 0. During modeling, DBA/1 mice were anesthetized with isoflurane and sensitized by injecting 50 microliters of prepared collagen emulsion (containing 200 micrograms of CII) subcutaneously on the tail (2-3 cm from the root of the tail). On Day 23, 100 microliters of 0.3 mg/mL LPS solution (containing 30 micrograms of LPS) was intraperitoneally injected. Mice in the normal group were not immunized.
On Day 26, when the average clinical score reached about 0.8, 24 mice with clinical scores of 0-1 were selected, and the mice were randomly grouped into 3 treatment groups of 8 according to the body weight and the score. […]
Clinical observation: the general health and body weight changes of DBA/1 mice were observed daily from 7 days before immunization to Day 23 after immunization (recorded once weekly). After Day 23, mice were observed daily for health, morbidity, and weight changes (recorded at least three times a week) until the end of assay. […]

SMILES: CC1(O)CCN(c2cc3nc(CCS(C)(=O)=O)cn3cc2NC(=O)c2cccc(C(F)(F)F)n2)CC1 [WX025]
- IC50 [1]: 0.5 nM

SMILES: CC(C)(O)CCc1cn2cc(NC(=O)c3cccc(C(F)(F)F)n3)c(N3CCC(CO)CC3)cc2n1 [WX007]
- IC50 [1]: 0.9 nM

SMILES: CC(C)(O)CCc1cn2cc(NC(=O)c3cccc(C(F)(F)F)n3)c(C(C)(C)O)cc2n1 [WX002]
- IC50 [1]: 0.4 nM
- IC50 [2]: 54 nM

SMILES: CC(C)(O)CCc1cn2cc(NC(=O)c3cccc(C(F)(F)F)n3)c(N3CCC(CN)CC3)cc2n1 [WX017]
- IC50 [1]: 1.3 nM

SMILES: C=CC(=O)N1CCC[C@@H](n2nc(-c3ccc(Oc4ccccc4)cc3)c3c(N)ncnc32)C1 [ibrutinib, reference compound]
- T/C value [3]: 39%
- TGI value [3]: 85%

SMILES: COC(=O)N1CCN(c2cc3nc(CCC(C)(C)O)cn3cc2NC(=O)c2cccc(C(F)(F)F)n2)CC1 [WX010]
- IC50 [1]: 4.6 nM

SMILES: NCC1CCN(c2cc3nc(CCC(=O)O)cn3cc2NC(=O)c2cccc(C(F)(F)F)n2)CC1 [WX020]
- IC50 [1]: 20.5 nM

SMILES: CC(C)(O)CCc1cn2cc(NC(=O)c3cccc(C(F)(F)F)n3)c(N3CCC(C(N)=O)CC3)cc2n1 [WX016]
- IC50 [1]: 1.2 nM
- IC50 [2]: 181 nM

SMILES: CC(C)(O)CCc1cn2cc(NC(=O)c3cccc(C(F)(F)F)n3)c(N3CCC(C)(O)CC3)cc2n1 [WX015]
- IC50 [1]: 0.7 nM
- IC50 [2]: 201 nM

SMILES: CC(C)(O)CCc1cn2cc(NC(=O)c3cccc(C(F)(F)F)n3)c(N3CCC(O)CC3)cc2n1 [WX005]
- tolerability (body weight, abnormality) in tumor-bearing mice ([3]; 18 days of treatment): good tolerability in animals
- T/C value [3]: 53%
- TGI value [3]: 66%
- inhibitory effect on LPS-induced TNF-α secretion (plasma TNF-α) ([4]; LPS 1 mg/kg i.p. 0.5 h after administration, plasma 2 h after LPS): significant inhibitory effect
- potency on LPS-induced TNF-α secretion compared with dexamethasone ([4]; WX005 30 mpk vs dexamethasone (DEX) 0.5 mpk): potency equivalent to that of dexamethasone
- dose-response of inhibition of LPS-induced TNF-α secretion ([4]; doses 3 mpk, 10 mpk, 30 mpk): clear dose-response relationship
- IC50 [1]: 1.3 nM
- body weight of the mice [5]: increased steadily
- clinical score of arthritis (efficacy) [5]: excellent efficacy
- IC50 [2]: 114 nM

SMILES: CC(C)(O)CCc1cn2cc(NC(=O)c3cccc(C(F)(F)F)n3)c(N3CCNCC3)cc2n1 [WX008]
- IC50 [1]: 1.5 nM

SMILES: CC(=O)N1CCN(c2cc3nc(CCC(C)(C)O)cn3cc2NC(=O)c2cccc(C(F)(F)F)n2)CC1 [WX004]
- IC50 [1]: 4.6 nM

SMILES: CC1(O)CCN(c2cc3nc(CCC(=O)O)cn3cc2NC(=O)c2cccc(C(F)(F)F)n2)CC1 [WX018]
- IC50 [1]: 9.8 nM

SMILES: CC(C)(O)CCc1cn2cc(NC(=O)c3cccc(C(F)(F)F)n3)c(N3CCOCC3)cc2n1 [WX001]
- IC50 [1]: 2.2 nM

SMILES: O=C(O)CCc1cn2cc(NC(=O)c3cccc(C(F)(F)F)n3)c(N3CCC(CO)CC3)cc2n1 [WX021]
- IC50 [1]: 7.1 nM

SMILES: CC(C)(O)CCc1cn2cc(NC(=O)c3cccc(C(F)(F)F)n3)c(C3CC3)cc2n1 [WX013]
- IC50 [1]: 3.6 nM

SMILES: NC(=O)C1CCN(c2cc3nc(CCC(=O)O)cn3cc2NC(=O)c2cccc(C(F)(F)F)n2)CC1 [WX019]
- IC50 [1]: 19.4 nM

SMILES: CC(C)(O)CCc1cn2cc(NC(=O)c3cccc(C(F)(F)F)n3)c(N3CCCC(O)C3)cc2n1 (stereo not shown) [WX006]
- IC50 [1]: 3.8 nM

SMILES: CCOc1cc2nc(CCC(C)(C)O)cn2cc1NC(=O)c1cccc(C(F)(F)F)n1 [WX014]
- IC50 [1]: 1.7 nM

SMILES: CC(C)(O)CCc1cn2cc(NC(=O)c3cccc(C(F)(F)F)n3)c(N3CCCCC3)cc2n1 [WX003]
- IC50 [1]: 1.2 nM

SMILES: CS(=O)(=O)CCc1cn2cc(NC(=O)c3cccc(C(F)(F)F)n3)c(N3CCC(O)CC3)cc2n1 [WX023]
- IC50 [1]: 1.3 nM
